The values that follow come from patent US20160083391A1, “TRICYCLIC PIPERAZINE DERIVATIVE” (Sunovion Pharmaceuticals Inc., priority 2014, published 2016).

For this experiment, the system named is PDE1. Put plainly: In vitro HTRF PDE1 inhibition assay. Format: biochemical. The following applies: HTRF cGMP assay, 100 nM cyclic GMP, PDE (1A3, 1B or 1C) with calmodulin, 45 minutes at 37° C.; isoform of the tabulated values not stated. The text has this:
An exemplary procedure for the in vitro Homogenous Time Resolved Fluorescence assay, which can be used to determine the inhibitory action of compounds of the invention toward. PDE1 or its isoforms, follows.
The HTRF PDE1 assay utilized the HTRF (Homogenous Time Resolved Fluorescence) technology, which is based on the competition between unlabeled cyclic nucleotide and cyclic nucleotide labeled with XL665 for the binding to cyclic nucleotide-specific antibody labeled with cryptate. The HTRF signal is thus inversely proportional to the concentration of cyclic nucleotide being measured. Since phosphodiesterases break down cyclic nucleotides the HTRF signal was used to determine PDE activity.
The Cisbio cGMP HTRF assay kit (Cat no: 62GM2PEC) was utilized. Cyclic GMP was diluted to 200 nM in HTRF assay buffer (1 mM CaCl2, 10 mM MgCl2, 10 mM Tris-HCl, 0.1% BSA, pH7.4). 10 μl of compound or DMSO was diluted in 200 nM cyclic GMP solution and added to wells of a 96 well white plate to give 100 nM cyclic GMP in 1% DMSO final concentration. PDE (1A3, 1B or 1C) was diluted to 2× working concentration in HTRF assay buffer with […] Calmodulin, and 10 μl was added to initiate the reaction. The plate was then incubated for 45 minutes at 37° C. d2-Labelled cyclic GMP and anti-cGMP cryptate were diluted in 50 mM phosphate buffer, 0.8M KF, 1% Triton X100, 0.2% BSA, pH7.0. Following incubation 10 μl d2-cGMP, then 10 μl anti cGMP cryptate were added to each well and the plate was incubated for 45 minutes at room temperature. The plate was then read on Perkin Elmer Victor at 2 different FRET readings ex/emm 340 nm/665 nm and 340 nm/615 nm.
Compounds having an IC50 of <1 μM, are denoted as +++. Compounds having an IC50 of 1-10 μM, are denoted as ++. Compounds having an IC50 of >10 μM, are denoted as +.

As for `COc1ccc(CN2Cc3nc4c(cnn4C(C)C)c(=O)n3CC2C)cc1` (racemic) [Compound I-146, (±)-1-Isopropyl-8-(4-methoxybenzyl)-7-methyl-6,7,8,9-tetrahydropyrazino[1,2-a]pyrazolo[3,4-d]pyrimidin-4(1H)-one], the IC50 was in the range of 1 to 10 µM.
As for `CC1Cn2c(nc3c(cnn3C(C)C)c2=O)CN1Cc1ccc(Cl)cc1` (racemic) [Compound I-147, (±)-8-(4-Chlorobenzyl)-1-isopropyl-7-methyl-6,7,8,9-tetrahydropyrazino[1,2-a]pyrazolo[3,4-d]pyrimidin-4(1H)-one], the concentration for half-maximal inhibition (IC50) is less than 1 µM.
The same measure for `CC1Cn2c(nc3c(cnn3C(C)C)c2=O)CN1Cc1ccc(F)cc1` (racemic) [Compound I-148, (±)-8-(4-Fluorobenzyl)-1-isopropyl-7-methyl-6,7,8,9-tetrahydropyrazino[1,2-d]pyrazolo[3,4-d]pyrimidin-4(1H)-one]: less than 1 µM.
Consider `CC1Cn2c(nc3c(cnn3C(C)C)c2=O)CN1Cc1cccc(F)c1` (racemic) [Compound I-149, (±)-8-(3-Fluorobenzyl)-1-isopropyl-7-methyl-6,7,8,9-tetrahydropyrazino[1,2-a]pyrazolo[3,4-d]pyrimidin-4(1H)-one], for which the half-maximal inhibitory concentration (IC50) was less than 1 µM.
With `CC1Cn2c(nc3c(cnn3C(C)C)c2=O)CN1c1ccc(Cl)cc1` (racemic) [Compound I-150, (±)-8-(4-Chlorophenyl)-1-isopropyl-7-methyl-6,7,8,9-tetrahydropyrazino[1,2-a]pyrazolo[3,4-d]pyrimidin-4(1H)-one] the figure was 1 to 10 µM.
With `COc1cccc(N2Cc3nc4c(cnn4C(C)C)c(=O)n3CC2C)c1` (racemic) [Compound I-151, (±)-1-Isopropyl-8-(3-methoxyphenyl)-7-methyl-6,7,8,9-tetrahydropyrazino[1,2-a]pyrazolo[3,4-d]pyrimidin-4(1H)-one] the figure was less than 1 µM; with `COc1cc(N2Cc3nc4c(cnn4C(C)C)c(=O)n3CC2C)ccc1F` (racemic) [Compound I-152, (±)-8-(4-Fluoro-3-methoxyphenyl)-1-isopropyl-7-methyl-6,7,8,9-tetrahydropyrazino[1,2-a]pyrazolo[3,4-d]pyrimidin-4(1H)-one], less than 1 µM.
With `CCC1Cn2c(nc3c(cnn3C(C)C)c2=O)CN1Cc1ccc(OC)cc1` (racemic) [Compound I-153, (±)-7-Ethyl-1-isopropyl-8-(4-methoxybenzyl)-6,7,8,9-tetrahydropyrazino[1,2-a]pyrazolo[3,4-a]pyrimidin-4(1H)-one] the figure was 1 to 10 µM; with `CCC1Cn2c(nc3c(cnn3C(C)C)c2=O)CN1Cc1ccc(Cl)cc1` (racemic) [Compound I-154, (±)-8-(4-Chlorobenzyl)-7-ethyl-1-isopropyl-6,7,8,9-tetrahydropyrazino[1,2-a]pyrazolo[3,4-d]pyrimidin-4(1H)-one], 1 to 10 µM; with `CCC1Cn2c(nc3c(cnn3C(C)C)c2=O)CN1c1ccc(Cl)cc1` (racemic) [Compound I-155, (±)-8-(4-Chlorophenyl)-7-ethyl-1-isopropyl-6,7,8,9-tetrahydropyrazino[1,2-a]pyrazolo[3,4-d]pyrimidin-4(1H)-one], 1 to 10 µM.
Consider `CC(C)CC1Cn2c(nc3c(cnn3C(C)C)c2=O)CN1c1ccc(Cl)cc1` (racemic) [Compound I-172, (±)-8-(4-Chlorophenyl)-7-isobutyl-1-isopropyl-6,7,8,9-tetrahydropyrazino[1,2-a]pyrazolo[3,4-d]pyrimidin-4(1H)-one], for which the IC50 was less than 1 µM.
With `O=c1c2cnn(C3CCOC3)c2nc2n1CCN(c1ccccc1)C2` (racemic) [Compound I-216, (±)-8-Phenyl-1-(tetrahydrofuran-3-yl)-6,7,8,9-tetrahydropyrazino[1,2-a]pyrazolo[3,4-d]pyrimidin-4(1H)-one] the figure was 1 to 10 µM; with `O=c1c2cnn(C3CCOC3)c2nc2n1CCN(c1ccc(Cl)cc1)C2` (racemic) [Compound I-217, (±)-8-(4-Chlorophenyl)-1-(tetrahydrofuran-3-yl)-6,7,8,9-tetrahydropyrazino[1,2-a]pyrazolo[3,4-d]pyrimidin-4(1H)-one], less than 1 µM; with `O=c1c2cnn(C3CCOC3)c2nc2n1CCN(Cc1ccccc1)C2` (racemic) [Compound I-218, (±)-8-Benzyl-1-(tetrahydrofuran-3-yl)-6,7,8,9-tetrahydropyrazino[1,2-a]pyrazolo[3,4-d]pyrimidin-4(1H)-one], 1 to 10 µM.
With `COc1ccc(CN2CCn3c(nc4c(cnn4C4CCOC4)c3=O)C2)cc1` (racemic) [Compound I-219, (±)-8-(4-methoxybenzyl)-1-(tetrahydrofuran-3-yl)-6,7,8,9-tetrahydropyrazino[1,2-a]pyrazolo[3,4-d]pyrimidin-4(1H)-one] the figure was more than 10 µM.
As for `O=c1c2cnn(C3CCOC3)c2nc2n1CCN(Cc1ccc(Cl)cc1)C2` (racemic) [Compound I-220, (±)-8-(4-Chlorobenzyl)-1-(tetrahydrofuran-3-yl)-6,7,8,9-tetrahydropyrazino[1,2-a]pyrazolo[3,4-d]pyrimidin-4(1H)-one], the IC50 lay in the range of 1 to 10 µM.
With `O=c1c2cnc(C3CCOC3)n2nc2n1CCN(c1ccccc1)C2` (racemic) [Compound I-229, (±)-7-Phenyl-3-(tetrahydrofuran-3-yl)-8,9-dihydro-6H-imidazo[5,1-f]pyrazino[2,1-c][1,2,4]triazin-11(7H)-one] the figure was less than 1 µM; with `O=c1c2cnc(C3CCOC3)n2nc2n1CCN(Cc1ccccc1)C2` (racemic) [Compound I-231, (±)-7-Benzyl-3-(tetrahydrofuran-3-yl)-8,9-dihydro-6H-imidazo[5,1-f]pyrazino[2,1-c][1,2,4]triazin-11(7H)-one], less than 1 µM.
With `COc1ccc(CN2CCn3c(nn4c(C5CCOC5)ncc4c3=O)C2)cc1` (racemic) [Compound I-232, (±)-7-(4-Methoxybenzyl)-3-(tetrahydrofuran-3-yl)-8,9-dihydro-6H-imidazo[5,1-f]pyrazino[2,1-c][1,2,4]triazin-11(7H)-one] the figure was 1 to 10 µM; with `O=c1c2cnc(C3CCOC3)n2nc2n1CCN(Cc1ccc(Cl)cc1)C2` (racemic) [Compound I-233, (±)-7-(4-Chlorobenzyl)-3-(tetrahydrofuran-3-yl)-8,9-dihydro-6H-imidazo[5,1-f]pyrazino[2,1-c][1,2,4]triazin-11(7H)-one], 1 to 10 µM.
In turn, `CC(C)n1ncc2c(=O)n3c(nc21)CNCC3` [Compound I-1, 1-Isopropyl-6,7,8,9-tetrahydropyrazino[1,2-a]pyrazolo[3,4-d]pyrimidin-4(1H)-one] came in with a concentration for half-maximal inhibition (IC50) of more than 10 µM.
`O=c1c2cnn(-c3ccccc3)c2nc2n1CCNC2` [Compound I-2, 1-Phenyl-6,7,8,9-tetrahydropyrazino[1,2-a]pyrazolo[3,4-d]pyrimidin-4(1H)-one] showed an IC50 of more than 10 µM.
Turning to `CC(C)c1n[nH]c2c(=O)n3c(nc12)CNCC3` [Compound I-10, 3-Isopropyl-5,6,7,8-tetrahydropyrazino[1,2-a]pyrazolo[4,3-a]pyrimidin-10(1H)-one], the IC50 was more than 10 µM.
With `CC(C)c1nn(C)c2c(=O)n3c(nc12)CNCC3` [Compound I-13, 3-Isopropyl-1-methyl-5,6,7,8-tetrahydropyrazino[1,2-a]pyrazolo[4,3-d]pyrimidin-10(1H)-one] the figure was more than 10 µM; with `O=c1c2c(Nc3ccccc3)n[nH]c2nc2n1CCNC2` [Compound I-16, 3-(Phenylamino)-6,7,8,9-tetrahydropyrazino[1,2-a]pyrazolo[3,4-d]pyrimidin-4(1H)-one], more than 10 µM; with `CN1CCn2c(nc3c(cnn3C)c2=O)C1` [Compound I-17, 1,8-Dimethyl-6,7,8,9-tetrahydropyrazino[1,2-a]pyrazolo[3,4-d]pyrimidin-4(1H)-one], more than 10 µM.
With `CC(C)n1ncc2c(=O)n3c(nc21)CN(C)CC3` [Compound I-18, 1-Isopropyl-8-methyl-6,7,8,9-tetrahydropyrazino[1,2-a]pyrazolo[3,4-d]pyrimidin-4(1H)-one] the figure was more than 10 µM.
With `CN1CCn2c(nc3c(cnn3-c3ccccc3)c2=O)C1` [Compound I-19, 8-Methyl-1-phenyl-6,7,8,9-tetrahydropyrazino[1,2-a]pyrazolo[3,4-d]pyrimidin-4(1H)-one] the figure was more than 10 µM.
For `O=c1c2cn[nH]c2nc2n1CCN(Cc1ccccc1)C2` [Compound I-27, 8-Benzyl-6,7,8,9-tetrahydropyrazino[1,2-a]pyrazolo[3,4-d]pyrimidin-4(1H)-one], the IC50 was more than 10 µM.
The same measure for `Cn1ncc2c(=O)n3c(nc21)CN(Cc1ccccc1)CC3` [Compound I-28, 8-Benzyl-1-methyl-6,7,8,9-tetrahydropyrazino[1,2-a]pyrazolo[3,4-d]pyrimidin-4(1H)-one]: more than 10 µM.
